# Source: patent publication US20240059703A1 (AMGEN INC., priority 2021, published 2024)
# Experiments:
# [1] = molecular target: KRAS G12C (Homo sapiens (Human), UniProt P01116, C118A/G12C); experiment: 2 h coupled exchange assay; type: biochemical; settings: Avg 2 h Coupled exchange IC50, 2 h compound pre-incubation
# Description: The term “2 h coupled exchange assay” or “20 h coupled exchange assay” as used herein refers to the assay described in the Section entitled “BIOLOGICAL EVALUATION.”
# [2] = tested on: MIA PaCa-2 (human pancreatic carcinoma) cells; experiment: Cell Viability Assay (CellTiter-Glo), MIA PaCa-2; type: cell-based
# Description: (§1) Serially-diluted compound or DMSO was added to the cells, and plates were incubated at 37° C., 5% CO2 for 72 h. Cell viability was measured using a CellTiter-Glo® Luminescent Cell Viability Assay kit (Promega) according to the manufacturer's protocol. The luminescence signal of treated samples was normalized to DMSO control, and data were analyzed using a 4-parameter logistic model to calculate IC50 values.
# [3] = tested on: A549 (human lung carcinoma) cells; experiment: Cell Viability Assay (CellTiter-Glo), A549; type: cell-based
# Description: as §1, with “MIA PaCa-2 (human pancreatic carcinoma; ATCC CRL-1420) or A549 (human lung carcinoma; ATCC CCL-185) cells were cultured in RPMI 1640 medium containing 10% fetal bovine serum and 1× penicillin/streptomycin/L-glutamine. Cells were seeded in 384-well plates at a density of 1.67E+04 cells/mL and incubated at 37° C., 5% CO2, overnight. Serially-diluted” for “Serially-diluted”
# [4] = SOS-mediated nucleotide exchange
# Sequence of KRAS G12C (P01116 other isoform, or with tags, fused parts or gaps G12C/C118A): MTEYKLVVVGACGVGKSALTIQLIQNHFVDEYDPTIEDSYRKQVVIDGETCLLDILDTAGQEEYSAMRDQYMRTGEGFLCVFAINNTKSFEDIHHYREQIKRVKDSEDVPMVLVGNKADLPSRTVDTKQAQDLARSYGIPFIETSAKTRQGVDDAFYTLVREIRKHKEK
SMILES,IC50 [1] [nM],IC50 ([2]; 72 h) [nM],"IC50 ([3]; Homo sapiens, A549, 72 h) [nM]","IC50 [1, 4] [nM]","IC50 ([2]; Homo sapiens, MIA PaCa-2, 72 h) [nM]",IC50 ([3]; 72 h) [nM]
"C=CC(=O)N1CC2(CCN(c3nc4cc(-c5scnc5C)ccc4c(-c4c(O)cccc4F)c3C#N)C2)C1 (single isomer, unassigned) [Example 19-4, (P)-4-(2-fluoro-6-hydroxyphenyl)-7-(4-methyl-1,3-thiazol-5-yl)-2-(2-(2-propenoyl)-2,6-diazaspiro[3.4]octan-6-yl)-3-quinolinecarbonitrile]",38,695,> 5000,–,–,–
"C=CC(=O)N1CC2(CCN(c3nc4c(c(-c5cc(O)ccc5Cl)c3C#N)C[C@H]3C[C@@H]4C3(C)C)C2)C1 (single isomer, unassigned) [Example 2-74]",–,–,> 5000,21,202,–
"C=CC(=O)N1CC2(CCN(c3nc4c(c(-c5cc(O)cc6cccnc56)c3C#N)C[C@H]3C[C@@H]4C3(C)C)C2)C1 (single isomer, unassigned) [Example 2-45]",–,–,> 5000,77,> 5000,–
"Cc1ccc2[nH]ncc2c1-c1c(C#N)c(N2CCC3(CN(C(=O)/C=C/CN(C)C)C3)C2)nc2c(F)cccc12 [Example 1-46, 2-(2-((2E)-4-(dimethylamino)-2-butenoyl)-2,6-diazaspiro[3.4]octan-6-yl)-8-fluoro-4-(5-methyl-1H-indazol-4-yl)-3-quinolinecarbonitrile]",–,–,6250,1530,2020,–
"C=CC(=O)N1CC2(CCN(c3nc4cc(-c5nccn5C)ccc4c(-c4ccccc4Cl)c3C#N)C2)C1 [Example 15-7, 4-(2-chlorophenyl)-7-(1-methyl-1H-imidazol-2-yl)-2-(2-(2-propenoyl)-2,6-diazaspiro[3.4]octan-6-yl)-3-quinolinecarbonitrile]",115,–,4140,–,966,–
"C=CC(=O)N1CC2(CCN(c3nc4c(c(-c5c(C)ccc6[nH]ncc56)c3C#N)CCC(C)C4)C2)C1 (stereo not drawn) [Example 2-1, 2-(2-acryloyl-2,6-diazaspiro[3.4]octan-6-yl)-7-methyl-4-(5-methyl-1H-indazol-4-yl)-5,6,7,8-tetrahydroquinoline-3-carbonitrile]",–,–,3100,42,430,–
"C=CC(=O)N1CC2(CCN(c3nc4c(c(-c5c(C)c(C)cc6cnn(C)c56)c3C)COC(C)(C)C4)C2)C1 [Example 14-40, 1-(6-(3,7,7-trimethyl-4-(1,5,6-trimethyl-1H-indazol-7-yl)-7,8-dihydro-5H-pyrano[4,3-b]pyridin-2-yl)-2,6-diazaspiro[3.4]octan-2-yl)-2-propen-1-one]",110,–,> 5000,–,502,–
"C=CC(=O)N1CC2(CCN(c3nc4c(c(-c5c(C)ccc6cn[nH]c56)c3C#N)C[C@H]3C[C@@H]4C3(C)C)C2)C1 [Example 14-48, (1R,9R)-10,10-dimethyl-6-(6-methyl-1H-indazol-7-yl)-4-(2-(2-propenoyl)-2,6-diazaspiro[3.4]octan-6-yl)-3-azatricyclo[7.1.1.0^2,7]undeca-2,4,6-triene-5-carbonitrile]",61,–,> 5000,–,53,–
"C=CC(=O)N1CC2(CCN(c3nc4c(c(-c5cccc6cccc(C)c56)n3)CCCC4)C2)C1 [Example 1-7, 1-(6-(4-(8-methyl-1-naphthalenyl)-5,6,7,8-tetrahydro-2-quinazolinyl)-2,6-diazaspiro[3,4]octan-2-yl)-2-propen-1-one]",–,–,> 5000,997,> 5000,–
"C=CC(=O)N1CC2(CCN(c3nc4c(c(-c5c(C)ccc6cnn(C)c56)c3C#N)CC(C)(C)C4)C2)C1 [Example 13-16, 4-(1,6-dimethyl-1H-indazol-7-yl)-6,6-dimethyl-2-(2-(2-propenoyl)-2,6-diazaspiro[3.4]octan-6-yl)-6,7-dihydro-5H-cyclopenta[b]pyridine-3-carbonitrile]",–,–,> 5000,82,393,–
"C=CC(=O)N1CC2(CCN(c3nc(-c4cc(O)cc5ccccc45)c4ncc(C)cc4n3)C2)C1 [Example 1-22, 1-(6-(4-(3-hydroxy-1-naphthalenyl)-7-methylpyrido[3,2-d]pyrimidin-2-yl)-2,6-diazaspiro[3.4]octan-2-yl)-2-propen-1-one]",–,–,> 25000,1140,4260,–
"C=CC(=O)N1CC2(CCN(c3nc4c(c(-c5cc(O)ccc5C)c3C)CCC(C)(C)C4)C2)C1 [Example 2-62, 1-(6-(4-(5-hydroxy-2-methylphenyl)-3,7,7-trimethyl-5,6,7,8-tetrahydro-2-quinolinyl)-2,6-diazaspiro[3,4]octan-2-yl)-2-propen-1-one]",–,–,> 5000,186,1270,–
"C=CC(=O)N1CC2(CCN(c3nc4c(c(-c5cc(O)cc6ccccc56)c3F)COC(C)(C)C4)C2)C1 (single isomer, unassigned) [Example 14-70, (P)-1-(6-(3-fluoro-4-(3-hydroxy-1-naphthalenyl)-7,7-dimethyl-7,8-dihydro-5H-pyrano[4,3-b]pyridin-2-yl)-2,6-diazaspiro[3.4]octan-2-yl)-2-propen-1-one]",68,–,> 5000,–,82,–
"C=CC(=O)N1CC2(CCN(c3cc4c(c(-c5c(C)c(Cl)cc6cnn(C)c56)c3C#N)OCCC4)[C@H]2C)C1 [Example 2-107, 8-(5-chloro-1,6-dimethyl-1H-indazol-7-yl)-6-((5S)-5-methyl-2-(2-propenoyl)-2,6-diazaspiro[3.4]octan-6-yl)-3,4-dihydro-2H-chromene-7-carbonitrile]",–,–,> 5000,17,7,–
"C=CC(=O)N1CC2(CCN(c3nc4c(c(-c5c(C)ccc6cn[nH]c56)c3C#N)C[C@H]3C[C@@H]4C3(C)C)C2)C1 (single isomer, unassigned) [Example 14-51]",11,–,> 5000,–,18,–
"C=CC(=O)N1CC2(CCN(c3nc4c(c(-c5cc(O)cc(Cl)c5C)c3C)COC(C)(C)C4)C2)C1 [Example 12-2, 1-(6-(4-(3-chloro-5-hydroxy-2-methylphenyl)-3,7,7-trimethyl-7,8-dihydro-5H-pyrano[4,3-b]pyridin-2-yl)-2,6-diazaspiro[3.4]octan-2-yl)prop-2-en-1-one]",–,–,> 5000,41,38,–
"C=CC(=O)N1CC2(CCN(c3nc4c(c(-c5c(C)ccc6cnn(C)c56)c3C#N)C[C@H]3C[C@@H]4C3)C2)C1 (single isomer, unassigned) [Example 13-118]",–,–,> 5000,72,279,–

# Further lines, results first:
IC50 [1] [nM],IC50 ([2]; 72 h) [nM],"IC50 ([3]; Homo sapiens, A549, 72 h) [nM]","IC50 [1, 4] [nM]","IC50 ([2]; Homo sapiens, MIA PaCa-2, 72 h) [nM]",IC50 ([3]; 72 h) [nM],SMILES
57,–,3980,–,454,–,"C=CC(=O)N1CC2(CCN(c3nc4c(c(-c5ccccc5F)c3C#N)CCN(c3scnc3C)[C@@H]4C)C2)C1 [Example 21-5, (8R)-4-(2-fluorophenyl)-8-methyl-7-(4-methyl-1,3-thiazol-5-yl)-2-(2-(2-propenoyl)-2,6-diazaspiro[3.4]octan-6-yl)-5,6,7,8-tetrahydro-1,7-naphthyridine-3-carbonitrile]"
112,–,> 5000,–,2110,–,"C=CC(=O)N1CC2(CCN(c3nc4c(c(-c5cccc(F)c5O)c3C#N)CCC(c3scnc3C)=C4)C2)C1 [Example 23-54, 4-(3-fluoro-2-hydroxyphenyl)-7-(4-methyl-1,3-thiazol-5-yl)-2-(2-(2-propenoyl)-2,6-diazaspiro[3.4]octan-6-yl)-5,6-dihydro-3-quinolinecarbonitrile]"
124,–,> 5000,–,1550,–,"C=CC(=O)N1CC2(CCN(c3nc4cc(-c5scnc5C)ccc4c(-c4cccc(C)c4C)c3C#N)C2)C1 [Example 20-6, 4-(2,3-dimethylphenyl)-7-(4-methyl-1,3-thiazol-5-yl)-2-(2-(2-propenoyl)-2,6-diazaspiro[3.4]octan-6-yl)-3-quinolinecarbonitrile]"
41,–,> 5000,–,327,–,"C=CC(=O)N1CC2(CCN(c3nc4c(c(-c5ccccc5F)c3C#N)CCN(c3scnc3C)C4)C2)C1 [Example 21-1, 4-(2-fluorophenyl)-7-(4-methyl-1,3-thiazol-5-yl)-2-(2-(2-propenoyl)-2,6-diazaspiro[3.4]octan-6-yl)-5,6,7,8-tetrahydro-1,7-naphthyridine-3-carbonitrile]"
35,–,> 5000,–,> 5000,–,"C=CC(=O)N1CC2(CCN(c3nc4c(c(-c5cccc(F)c5O)c3C#N)CCN(c3scnc3C)C4)C2)C1 [Example 21-14, 4-(3-fluoro-2-hydroxyphenyl)-7-(4-methyl-1,3-thiazol-5-yl)-2-(2-(2-propenoyl)-2,6-diazaspiro[3.4]octan-6-yl)-5,6,7,8-tetrahydro-1,7-naphthyridine-3-carbonitrile]"
101,606,–,–,–,> 5000,"C=CC(=O)N1CC2(CCN(c3nc4c(c(-c5ccc(F)cc5Cl)c3C#N)CCC(c3scnc3C)=C4)C2)C1 (atropisomer, axis not shown; (P)) [Example 23-33, (P)-4-(2-chloro-4-fluorophenyl)-7-(4-methyl-1,3-thiazol-5-yl)-2-(2-(2-propenoyl)-2,6-diazaspiro[3.4]octan-6-yl)-5,6-dihydro-3-quinolinecarbonitrile]"
